Experimental data reported in patent publication US20060004197A1, “Sulfonamide-based compounds as protein tyrosine kinase inhibitors” (priority 2004, published 2006).

Columns and labels:
Format in all cases: biochemical
Conditions in all cases: NI = no inhibition at 100 μg/mL
FGF receptor (FGFr) = experiment: FGFr tyrosine kinase activity, poly E4Y / 32P-ATP phosphorylation assay
Recombinant Csk = Recombinant Csk (Homo sapiens, UniProt P41240); experiment: Csk tyrosine kinase activity, poly E4Y / 32P-ATP phosphorylation assay
Recombinant human Src = biological target: T1, Recombinant human Src (Homo sapiens, UniProt P12931); experiment: Src tyrosine kinase activity, poly E4Y / 32P-ATP phosphorylation assay
T1 construct: made in house; host or cells: baculovirus-insect cell system
T1 sequence (P12931 whole entry): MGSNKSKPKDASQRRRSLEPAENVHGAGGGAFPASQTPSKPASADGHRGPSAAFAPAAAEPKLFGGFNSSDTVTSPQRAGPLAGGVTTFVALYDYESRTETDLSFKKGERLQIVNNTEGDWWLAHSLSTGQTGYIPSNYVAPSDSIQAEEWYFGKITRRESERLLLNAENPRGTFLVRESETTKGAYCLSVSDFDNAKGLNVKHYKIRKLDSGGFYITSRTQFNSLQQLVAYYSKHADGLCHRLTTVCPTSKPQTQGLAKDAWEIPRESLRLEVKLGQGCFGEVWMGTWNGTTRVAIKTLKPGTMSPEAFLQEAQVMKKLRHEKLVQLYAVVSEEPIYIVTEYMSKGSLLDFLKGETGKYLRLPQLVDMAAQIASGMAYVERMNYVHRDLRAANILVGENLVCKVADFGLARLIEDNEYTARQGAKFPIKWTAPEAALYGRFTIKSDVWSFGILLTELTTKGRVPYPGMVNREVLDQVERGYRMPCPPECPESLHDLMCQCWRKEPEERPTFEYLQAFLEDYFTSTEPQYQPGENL

Compound	IC50 (FGF receptor (FGFr); Table 2, Formula I compounds) [µM]	IC50 (Recombinant Csk; Table 2, Formula I compounds) [µM]	IC50 (Recombinant human Src; Table 2, Formula I compounds) [µM]	IC50 (FGF receptor (FGFr); Table 3, Formula II compounds) [µM]	IC50 (Recombinant Csk; Table 3, Formula II compounds) [µM]	IC50 (Recombinant human Src; Table 3, Formula II compounds) [µM]	IC50 (μM) FGFr (FGF receptor (FGFr); Table 3, Formula II compounds)
Cc1ccc(S(=O)(=O)Nc2cc(SCc3ccco3)c([N+](=O)[O-])cc2NS(=O)(=O)c2ccc(C)cc2)cc1 [Compound 4p, N-[4-(furan-2-ylmethylsulfanyl)-5-nitro-2-(4-toluenesulfonylamino)-phenyl]-4-toluenesulfonamide]	7.3	11.3	1.6	–	–	–	–
Cc1ccc(S(=O)(=O)Nc2cc(SCc3ccc(Cl)cc3)c([N+](=O)[O-])cc2NS(=O)(=O)c2ccc(C)cc2)cc1 [Compound 4q, N-[4-(4-chloro-benzylsulfanyl)-5-nitro-2-(4-toluenesulfonylamino)-phenyl]-4-toluenesulfonamide]	2.7	4.1	1	–	–	–	–
Cc1ccc(S(=O)(=O)Nc2cc(SCc3ccccc3Cl)c([N+](=O)[O-])cc2NS(=O)(=O)c2ccc(C)cc2)cc1 [Compound 4r, N-[4-(2-chloro-benzylsulfanyl)-5-nitro-2-(4-toluenesulfonylamino)-phenyl]-4-toluenesulfonamide]	1.9	4.2	0.65	–	–	–	–
COc1ccc(CSc2cc(NS(=O)(=O)c3ccc(C)cc3)c(NS(=O)(=O)c3ccc(C)cc3)cc2[N+](=O)[O-])cc1 [Compound 4s, N-[4-(4-methoxy-benzylsulfanyl)-5-nitro-2-(4-toluenesulfonylamino)-phenyl]-4-toluenesulfonamide]	4.3	5.7	1.3	–	–	–	–
CS(=O)(=O)Nc1cc(Sc2ccc(Cl)cc2)c([N+](=O)[O-])cc1NS(C)(=O)=O [Compound 4u, N-[5-(4-chloro-phenylsulfanyl)-2-methanesulfonylamino-4-nitro-phenyl]-methanesulfonamide]	188	333	590	–	–	–	–
Cc1ccc(S(=O)(=O)Nc2cc(-c3ccccc3)c([N+](=O)[O-])cc2NS(=O)(=O)c2ccc(C)cc2)cc1 [Compound 8, N-[5-nitro-4-phenyl-2-(4-toluenesulfonylamino)-phenyl]-4-toluenesulfonamide]	4.9	10.4	1.7	–	–	–	–
Cc1ccc(S(=O)(=O)Nc2ccc(Oc3ccc(CC(=O)O)cc3)cc2NS(=O)(=O)c2ccc(C)cc2)cc1 [Compound 12aa, {4-[3,4-bis(4-toluenesulfonylamino)-phenoxy]-phenyl}-acetic acid]	–	–	–	10.6	77	6.7	–
Cc1ccc(S(=O)(=O)Nc2ccc(OCCCO)cc2NS(=O)(=O)c2ccc(C)cc2)cc1 [Compound 12bb, N-[4-(3-hydroxy-propoxy)-2-(4-toluenesulfonylamino)-phenyl]-4-toluenesulfonamide]	–	–	–	–	> 204	> 204	NI (NI = no inhibition at 100 μg/mL)
COc1ccc(Oc2ccc(NS(=O)(=O)c3ccc(Oc4ccccc4)cc3)c(NS(=O)(=O)c3ccc(Oc4ccccc4)cc3)c2)cc1 [Compound 12e, N-[4-(4-methoxy-phenoxy)-2-(4-phenoxy-benzenesulfonylamino)-phenyl]-4-phenoxy-benzenesulfonamide]	–	–	–	46	> 144	19	–
Cc1ccc(S(=O)(=O)Nc2ccc(Sc3ccc(Cl)cc3)cc2NS(=O)(=O)c2ccc(C)cc2)cc1 [Compound 12ff, N-[4-(4-chloro-phenylsulfanyl)-2-(4-toluenesulfonylamino)-phenyl]-4-toluenesulfonamide]	–	–	–	3.6	8.6	4	–
COc1ccc(Sc2ccc(NS(=O)(=O)c3ccc(C)cc3)c(NS(=O)(=O)c3ccc(C)cc3)c2)cc1 [Compound 12gg, N-[5-(4-methoxy-phenylsulfanyl)-2-(4-toluenesulfonylamino)-phenyl]-4-toluenesulfonamide]	–	–	–	17	> 180	16	–
CCCCSc1ccc(NS(=O)(=O)c2ccc(C)cc2)c(NS(=O)(=O)c2ccc(C)cc2)c1 [Compound 12hh, N-[4-butylsulfanyl-2-(4-toluenesulfonylamino)-phenyl]-4-toluenesulfonamide]	–	–	–	30	> 198	18	–
Cc1ccc(S(=O)(=O)Nc2ccc(Oc3ccc(F)cc3)cc2NS(=O)(=O)c2ccc(C)cc2)cc1 [Compound 12t, N-[4-(4-fluoro-phenoxy)-2-(4-toluenesulfonylamino)-phenyl]-4-toluenesulfonamide]	–	–	–	40	105	19	–

More lines, now with the values ahead:

IC50 (FGF receptor (FGFr); Table 2, Formula I compounds) [µM]	IC50 (Recombinant Csk; Table 2, Formula I compounds) [µM]	IC50 (Recombinant human Src; Table 2, Formula I compounds) [µM]	IC50 (FGF receptor (FGFr); Table 3, Formula II compounds) [µM]	IC50 (Recombinant Csk; Table 3, Formula II compounds) [µM]	IC50 (Recombinant human Src; Table 3, Formula II compounds) [µM]	IC50 (μM) FGFr (FGF receptor (FGFr); Table 3, Formula II compounds)	Compound
–	–	–	44	> 176	23	–	CCc1ccc(S(=O)(=O)Nc2ccc(Oc3ccc(OC)cc3)cc2NS(=O)(=O)c2ccc(CC)cc2)cc1 [Compound 12a, 4-ethyl-N-[2-(4-ethyl-benzenesulfonylamino)-4-(4-methoxy-phenoxy)-phenyl]-benzenesulfonamide]
–	–	–	45	> 168	18.5	–	COc1ccc(Oc2ccc(NS(=O)(=O)c3ccc(C(C)C)cc3)c(NS(=O)(=O)c3ccc(C(C)C)cc3)c2)cc1 [Compound 12b, 4-isopropyl-N-[2-(4-isopropyl-benzenesulfonylamino)-4-(4-methoxy-phenoxy)-phenyl]-benzenesulfonamide]
–	–	–	19	95	8.6	–	COc1ccc(Oc2ccc(NS(=O)(=O)c3ccc(Cl)cc3)c(NS(=O)(=O)c3ccc(Cl)cc3)c2)cc1 [Compound 12c, 4-chloro-N-[2-(4-chloro-benzenesulfonylamino)-4-(4-methoxy-phenoxy)-phenyl]-benzenesulfonamide]
–	–	–	35	73	24	–	COc1ccc(Oc2ccc(NS(=O)(=O)c3ccc(F)cc3)c(NS(=O)(=O)c3ccc(F)cc3)c2)cc1 [Compound 12d, 4-fluoro-N-[2-(4-fluoro-benzenesulfonylamino)-4-(4-methoxy-phenoxy)-phenyl]-benzenesulfonamide]
–	–	–	35	> 167	20	–	COc1ccc(Oc2ccc(NS(=O)(=O)c3cccc([N+](=O)[O-])c3)c(NS(=O)(=O)c3cccc([N+](=O)[O-])c3)c2)cc1 [Compound 12f, N-[4-(4-methoxy-phenoxy)-2-(3-nitro-benzenesulfonylamino)-phenyl]-3-nitro-benzenesulfonamide]
–	–	–	70	102	35	–	COc1ccc(Oc2ccc(NS(=O)(=O)Cc3ccccc3)c(NS(=O)(=O)Cc3ccccc3)c2)cc1 [Compound 12g, N-[4-(4-methoxy-phenoxy)-2-phenylmethanesulfonylamino-phenyl]-C-phenyl-methanesulfonamide]
–	–	–	36	98	9	–	COc1ccc(Oc2ccc(NS(=O)(=O)c3cccc4ccccc34)c(NS(=O)(=O)c3cccc4ccccc34)c2)cc1 [Compound 12h, naphthalene-1-sulfonic acid [4-(4-methoxy-phenoxy)-2-(naphthalen-1-yl-sulfonylamino)-phenyl]-amide]
–	–	–	48	> 164	8	–	COc1ccc(Oc2ccc(NS(=O)(=O)c3ccc4ccccc4c3)c(NS(=O)(=O)c3ccc4ccccc4c3)c2)cc1 [Compound 12i, naphthalene-2-sulfonic acid [4-(4-methoxy-phenoxy)-2-(naphthalen-2-yl-sulfonylamino)-phenyl]-amide]
–	–	–	192	> 160	50	–	COc1ccc(Oc2ccc(NS(=O)(=O)c3ccc(NC(C)=O)cc3)c(NS(=O)(=O)c3ccc(NC(C)=O)cc3)c2)cc1 [Compound 12j, N-[2-(4-acetamido-benzenesulfonylamino)-4-(4-methoxy-phenoxy)-phenyl]-4-acetamido-benzenesulfonamide]
–	–	–	44	88	21	–	COc1ccc(Oc2ccc(NS(=O)(=O)c3ccc(OC)cc3)c(NS(=O)(=O)c3ccc(OC)cc3)c2)cc1 [Compound 12k, N-[2-(4-methoxy-benzenesulfonylamino)-4-(4-methoxy-phenoxy)-phenyl]-4-methoxy-benzenesulfonamide]
–	–	–	81	> 212	40	–	CCCCS(=O)(=O)Nc1ccc(Oc2ccc(OC)cc2)cc1NS(=O)(=O)CCCC [Compound 12l, butane-1-sulfonic acid [2-(butane-1-sulfonylamino)-4-(4-methoxy-phenoxy)-phenyl]-amide]
–	–	–	–	> 159	54	NI (NI = no inhibition at 100 μg/mL)	COc1ccc(Oc2ccc(NS(=O)(=O)c3ccc(OC)c(OC)c3)c(NS(=O)(=O)c3ccc(OC)c(OC)c3)c2)cc1 [Compound 12m, N-[2-(3,4-dimethoxy-benzenesulfonylamino)-4-(4-methoxy-phenoxy)-phenyl]-3,4-dimethoxy-benzenesulfonamide]
–	–	–	24	> 196	29	–	COc1ccc(Oc2ccc(NS(=O)(=O)c3ccccc3)c(NS(=O)(=O)c3ccccc3)c2)cc1 [Compound 12n, N-[2-benzenesulfonylamino-4-(4-methoxy-phenoxy)-phenyl]-benzenesulfonamide]
–	–	–	22	> 161	7.2	–	COc1ccc(Oc2ccc(NS(=O)(=O)c3ccc(C(C)(C)C)cc3)c(NS(=O)(=O)c3ccc(C(C)(C)C)cc3)c2)cc1 [Compound 12o, N-[2-(4-t-butyl-benzenesulfonylamino)-4-(4-methoxy-phenoxy)-phenyl]-4-t-butyl-benzenesulfonamide]
–	–	–	26	> 186	28	–	COc1ccc(Oc2ccc(NS(=O)(=O)c3ccc(C)cc3)c(NS(=O)(=O)c3ccc(C)cc3)c2)cc1 [Compound 12p, N-[5-(4-methoxy-phenoxy)-2-(4-toluenesulfonylamino)-phenyl]-4-toluenesulfonamide]
–	–	–	42	> 168	39	–	COc1ccc(Oc2ccc(NS(=O)(=O)c3c(C)cc(C)cc3C)c(NS(=O)(=O)c3c(C)cc(C)cc3C)c2)cc1 [Compound 12q, N-[4-(4-methoxy-phenoxy)-2-(2,4,6-trimethylbenzenesulfonylamino)-phenyl]-2,4,6-trimethylbenzenesulfonamide]
